In data set [1] the test system is MDA-MB-231 cells. Description: GI50 panel (MTT assay), MDA-MB-231. In kind it is cell-based. The settings on record: MDA-MB-231, MTT, 72 h; Kadcyla based on estimated weight ADC; footnote: based on MMAE drug equivalents.
Data set [2] relates to SKOV-3 cells. Description: GI50 panel (MTT assay), SKOV-3. Format: cell-based. The note with it: SKOV-3, MTT, 72 h; Kadcyla based on estimated weight ADC; footnote: based on MMAE drug equivalents.
The next data set has as its system SK-Br-3 cells. Description: GI50 panel (MTT assay), SK-BR-3. Format: cell-based. The note with it: SK-BR-3, MTT, 72 h; Kadcyla based on estimated weight ADC; footnote: based on MMAE drug equivalents.
The next data set deals with NCI-N87 cells. Put plainly: GI50 panel (MTT assay), NCI-N87. The settings on record: NCI-N87, MTT, 72 h; Kadcyla based on estimated weight ADC; footnote: based on MMAE drug equivalents. Format: cell-based.
For the next data set, the system named is OE-19 cells. Description: GI50 panel (MTT assay), OE19. In kind it is cell-based. The note with it: OE19, MTT, 72 h; Kadcyla based on estimated weight ADC; footnote: based on MMAE drug equivalents.
In data set [3] the test system is MDA-MB-231 cells. Description: Cytotoxicity alamarBlue assay, MDA-MB-231 (HER2 lo). In kind it is cell-based. The note with it: 48 h; for Cell viability %: mean ± sd, n=4. As for the experimental part: (§1) The cytotoxicity of Compound 71 (control) and Compound 123 (targeted) toward MDA-MB-231, and MDA-MB-231/HER2 transfected cells were evaluated via alamarBlue assays. Cells were seeded at a density of 5×10^3, in 96-well plates and incubated overnight. Cells were then treated with indicated concentrations of test compositions for 48 h. AlamarBlue (Thermo Fisher, DAL1025) was added during the final 4 h of incubation. Reduction of alamarBlue in living cells yields a red fluorescent metabolite that can be read on a plate reader (560 nm excitation/610 nm emission). Cell viability and subsequent IC50 was determined from the blank corrected dose-response curves, with 4-parameter nonlinear nonlinear curve fit, variable slope (four parameters) in GraphPad Prism 7.02. […] Compound 123 (targeted) is approximately 140-fold increase in MDA-MB-231/HER2 cell growth inhibition compared to Compound 71 (control).

For data set [4], the system named is MDA-MB-231/HER2 transfected cells. Description: Cytotoxicity alamarBlue assay, MDA-MB-231/HER2 (HER2 hi). In kind it is cell-based. The settings on record: 48 h; for Cell viability %: mean ± sd, n=4. As for the experimental part:
MDA-MB-231 breast cancer cells were transfected with plasmid HER2 WT Addgene, 16257) using Lipofectamine 3000 according to manufacturer's instructions. After passaging in the presence of 500 μg/ml Geneticin (Thermo Fisher, catalogue 10131035), cells with stable overexpression of HER2 WT were isolated by fluorescence activated single cell sorting using a MoFlo Astrios (Beckman Coulter). A clonal cell population isolated from this process was further passaged in Geneticin before a second round of cell sorting and screening for transgene expression. A selected clone was then further expanded and stocks of this cell line, referred to as MDA-MB-231/HER2, were cryopreserved to generate a master stock of stably transduced cells.
as §1
Background: Alamar Blue is a resazurin reagent that responds to reducing activity.

The subject of data set [5] is MDA-MB-231 cells (HER2 lo). Description: In vitro association study (flow cytometry), MDA-MB-231. Format: cell-based, human. The note with it: MDA-MB-231, over 24 h, result in words. (In general: Flow cytometry measures light scatter and fluorescence of single cells or particles in a stream.)
Data set [6] deals with MDA-MB-231/HER2 (HER2 knock in) cells. Description: In vitro association study (flow cytometry), MDA-MB-231/HER2. Format: cell-based, human.
Data set [7] deals with SKOV-3 cells. Put plainly: In vitro association study (flow cytometry), SKOV-3. Format: cell-based, human. As for the experimental part:
The HER2-expressing human metastatic carcinoma cell line MDA-MB-453 (ATCC HTB-131) and the HER2-lo epithelial adenocarcinoma cell line MDA-MB-231 (ATCC HTB-26) were maintained in Dulbecco's Modified Eagle's Medium (DMEM) containing 10% FBS and penicillin-streptomycin (100 U/mL) at 37° C. under a 5% CO2 humidified atmosphere and subcultured prior to confluence using trypsin. Human adenocarcinoma ovary cell line SKOV-3 (ATCC® HTB-77) cells were maintained in RPMI media with the addition of 10% (v/v) FBS and penicillin-streptomycin (100 U/mL) at 37° C. in a 5% CO2 humidified atmosphere and subcultured prior to confluence.
MDA-MB-231, MDA-MB-231/HER2 (HER2 knock in) (as described in Ex 6 above), or SKOV-3 cells were seeded in a 24-well plate (1×10^5 cells per well) in 500 μL of appropriate growth media with the addition of 10% (v/v) fetal bovine serum (FBS) and incubated with Compound 36 or Compound 41 at 3.33 nM, with incubation time varied from 1 to 24 h at 37° C. in a 5% CO2 humidified atmosphere. […] Cellular binding and association of sample were then determined through flow cytometry by the acquisition of the signal from Cy5.
To measure internalisation kinetics, nanobody-dendrimer was incubated with cells for 24, 4, 1, 0.5, and 0.1 hours at 37° C. before unbound nanobody-dendrimer was removed by washing and analysed by flow cytometry.

Data set [8] has as its system MDA-MB-231 cells. Put plainly: Confocal cellular uptake, MDA-MB-231. Format: cell-based. The settings on record: MDA-MB-231, 3.33 nM, 24 h. As for the experimental part:
MDA-MB-231, MDA-MB-231/HER2 and SKOV-3 cells were plated at 1.0×10^4 cells per well into μ-slide 8-well chambered coverslip (ibidi) and allowed to adhere overnight at 37° C., 5% CO2. Compound 71 and Compound 123 (3.33 nM) were then added and allowed to incubate for 1, 3, 6, and 24 h. The cells were washed and then fixed with 1% paraformaldehyde for 20 min at room temperature. The cell membrane was stained with Alexa Fluor 488-wheat germ agglutinin (AF488-WGA, 5 μg mL^−1) in DPBS at room temperature for 10 min. The cell nuclei were counterstained with 4′,6-diamidino-2-phenylindole (DAPI, 2 μg mL^−1) in DPBS at room temperature for 10 min. Fluorescence images and optical sections were collected using a confocal microscope (Leica SP8). Images were processed with Fiji (Image J 1.52n).

A further data set relates to BT474 tumours. Put plainly: Radiotherapeutic efficacy (177Lu) in BT474 xenograft model. In kind it is in vivo, Balb/c nude mice. The note with it: 177Lu-labelled test articles, IV. As for the experimental part:
Healthy in female Balb/c nude mice (aged 9 weeks) were obtained from the Animal Resource Centre, Western Australia. A total of four mice per dosing group were initially implanted with estrogen pellets (17Beta-estradiol 0.72 mg/pellet 60 Day Release; Innovative Research of America) and then on day 2 were innoculated subcutaneously in the breast mammary fat pad with 10×10^6 BT474 cells in PBS:Matrigel (1:1). Mice were weighed, and tumours measured 2-3 times weekly using electronic callipers. Tumour volume (mm^3) were calculated as ((length (mm)×((width (mm))^2)/2. Mice were randomised into eight dosing groups outlined in the Table below as tumours reached mean volumes of approximately 100 mm^3 (approximately 5 weeks from implantation of cells).
Samples of each solution were taken and mixed 1:1 with 50 mM DTPA. 5 μL of each DTPA incubated sample or neat solution was spotted on TLC paper (Agilent iTLC-SG Glass microfiber chromatography paper impregnated with silica gel) and run with 50:50 H2O:ethanol. Detection of radiolabelled species migration was then achieved using an Eckert and Ziegler Mini-Scan and Flow-Count system. […] Control experiments were conducted to monitor the elution behaviour of free ^177Lu and ^177Lu bound to DTPA for quality control. […]

We go through two substances from patent US20240293588A1, “THERAPEUTIC CONJUGATES” (Starpharma Pty Ltd, priority 2020, published 2024).

pIC50: −log10 of the molar value.

For “(MeTzPh)PEG4CO-NHPEG24CO—[N(PN)2][Lys]2[Lys]4[Lys]8[((α-NHCy5)1(α-NHGlu-VC-PAB-MMAE)7)(ε-NH-COPEG1100)8], G3 [Compound 71]”, the GI50 (in general, the concentration giving 50% growth inhibition) in the data set with MDA-MB-231 cells [1] is 12500 nM; in the data set on SKOV-3 cells [2] it was 1600 nM; with SK-Br-3 cells, 948 nM; in the data set with NCI-N87 cells, 2040 nM; in the data set on OE-19 cells, 6120 nM. Further, the Cell viability % in the data set with MDA-MB-231 cells [3] (MDA-MB-231, MMAE concentration 1 × 10^−5 M) came to 94.2 ± 12.1%; with MDA-MB-231 cells [3] (MDA-MB-231, MMAE concentration 1 × 10^−6 M), 94.4 ± 8.2%; with MDA-MB-231 cells [3] (MDA-MB-231, MMAE concentration 1 × 10^−7 M), 94.2 ± 12.5%; with MDA-MB-231 cells [3] (MDA-MB-231, MMAE concentration 1 × 10^−8 M), 96.6 ± 11.7%; in the data set on MDA-MB-231 cells [3] (MDA-MB-231, MMAE concentration 5 × 10^−5 M), 81.1 ± 5.4%; in [4] (MDA-MB-231/HER2, MMAE concentration 1 × 10^−5 M), 61.6 ± 3.1%. The Cell viability % in [4] (MDA-MB-231/HER2, MMAE concentration 1 × 10^−6 M) was determined as 78.2 ± 9.1%; in [4] (MDA-MB-231/HER2, MMAE concentration 1 × 10^−7 M) it was 96.1 ± 3.6%; in data set [4] (MDA-MB-231/HER2, MMAE concentration 1 × 10^−8 M) it was 95.4 ± 7.6%; in data set [4] (MDA-MB-231/HER2, MMAE concentration 5 × 10^−5 M) it was 49.9 ± 15.0%. In the data set with MDA-MB-231 cells [3] (MDA-MB-231, alamarBlue, MMAE concentration), the IC50 entry was “Ambiguous”. Moreover, the pIC50 (usually −log10 of the IC50, conventionally taken in molar units) in [4] (MDA-MB-231/HER2, alamarBlue, MMAE concentration) is 5.55. Also, the “binding towards cell line (flow cytometry)” value in data set [5] is recorded as “minimal binding”; in data set [6] (MDA-MB-231/HER2, over 24 h, result in words), “minimal binding”; with SKOV-3 cells [7] (SKOV-3, over 24 h, result in words) it was “minimal binding”. Also, the “mean fluorescence intensity (Cy5)” value in [6] (MDA-MB-231/HER2, 3.33 nM, 24 h, 37° C., mean±SD, n=3) is listed as 16.05±1.89; with SKOV-3 cells [7] (SKOV-3, 3.33 nM, 24 h, 37° C., mean±SD, n=3), 16.4±6.86. The “association with cells (confocal microscopy)” value in the data set with MDA-MB-231 cells [8] is listed as “little”.
With “BHALys[Lys]2[Lys]4[Lys]8[Lys]16[Lys]32[(α-NHAc)30(α-NHDOTA)2(ε-NHCOPEG2000)32] [Compound RH-3-160]”, the “suppression of tumour growth” value in the data set on BT474 tumours was “effective in suppressing tumour growth”.
